From patent US10730911B2, “Backbone-cyclized peptidomimetics with GLP-1R modulating activity” (POLYPHOR AG, priority 2015, dated 2020)
Where a SMILES comes first, the peptide text is derived from it. [ ]: non-standard residue; d: D form. Trp(5-OH) = N[C@@H](Cc1c[nH]c2ccc(O)cc12)C(=O)O; His(π-Bn) = N[C@@H](Cc1cncn1Cc1ccccc1)C(=O)O; Phe(4-CN) = N#Cc1ccc(C[C@H](N)C(=O)O)cc1; Phe(4-NH2) = Nc1ccc(C[C@H](N)C(=O)O)cc1; 3Pal = N[C@@H](Cc1cccnc1)C(=O)O; 4Pal = N[C@@H](Cc1ccncc1)C(=O)O; Cit = NC(=O)NCCC[C@H](N)C(=O)O; Ac6c = NC1(C(=O)O)CCCCC1; Ac5c = NC1(C(=O)O)CCCC1; Aib = CC(C)(N)C(=O)O

Target: T1, human glucagon-like peptide-1 receptor (GLP-1R) (Homo sapiens, UniProt P43220)
T1 construct: host or cells: CHO chAMPion cells
Assay: Human GLP-1 receptor cell-based assay (flash luminescence, Target Activation phase)
Settings: CHO chAMPion cells stably co-expressing human GLP-1R, Photina and cAMP-activated calcium channel; agonist activity; normalization by forskolin at 10 μM; ^a) values from single experiment; read-out: EC50 (μM) Target Activation (TA)
Description: CHO chAMPion cells (Axxam SpA; S. Corazza, Assay Drug Dev. Technol. 2009, 7, 304-307) stably co-expressing the human glucagon-like peptide-1 receptor (GLP-1R), the Ca^2+-sensitive photoprotein PHOTINA® (S. Bovolenta et al., J. Biomol. Screen. 2007, 12, 694-704) and a mutated cAMP-activated calcium ion channel (WO2004/083803 A2) were used to monitor GLP-1R signaling after stimulation with an agonist. Activation of the Gas-coupled GPCR GLP-1R was monitored by measuring the flash luminescence of the Ca^2+-sensitive photoprotein as reporter system with FLIPR^TETRA screening instrumentation (Molecular Devices) upgraded with an ICCD Camera (MDC). For data quality check and data analysis the Genedata SCREENER® software was used.
The reference agonist GLP-1 (glucagon-like peptide-1 amide fragment 7-36) and forskolin were purchased from Sigma (cat. G8147 and F6886, respectively) and prepared according to each ligand's specifications. All handling of ligands were done to ensure proper control throughout the experiments. The steps of the implemented workflow and data analysis are mainly as follows:
Stably transfected chAMPion cells are seeded 10000 c/w in 384 MTP in Dulbecco's MEM/nutrient mix F12 (BioWhittaker cat. BE04-687F/U1; 500 mL) supplemented with sodium pyruvate (BioWhittaker cat. BE13-115E; 5 mL of 100 mM solution), HEPES (BioWhittaker cat. BE17-737E; 6.5 mL of 1M solution), sodium bicarbonate (BioWhittaker cat. BE17-613E; 25 mL of 7.5% solution), fetal bovine serum (Euroclone cat. ECS 0180L; 50 mL), penicillin-streptomycin (BioWhittaker cat. DE17-602E; 5 mL of 100×solution), 1 mg/mL G418 (selection antibiotic for GLP-1R) and 200 μg/mL hygromycin in 25 μL/well for 24 hours. On the day of the experiment, plates are removed from the incubator, freed from the growth medium, equilibrated at room temperature for 1 h, loaded with 30 μl/well of Ca^2+ free Tyrode's buffer containing 20 μM coelentrazine and 500 μM IBMX, and incubated for 4 hours at room temperature.
All compounds were tested at 8 concentrations, starting from 50 μM in quadruplicate, intra-plate (dilution step 1:2.15) to determine EC50 values. After incubation, the volume in all the wells is flattened to 20 αL by aspiration with a CYBIO®-VARIO pipettor. First Injection (10 μL of test compounds in Ca^2+ free Tyrode's buffer, DMSO 0.5% v/v and BSA 0.01%; or 10 μL of reference compounds GLP-1 or forskolin in Ca′ free Tyrode's buffer, DMSO 0.5% v/v and BSA 0.01%) is performed by the FLIPR^TETRA and the kinetic response is optionally monitored over a period of 60 seconds. Incubation for 30 minutes at room temperature is followed by the Second Injection (Tyrode's buffer+10 mM CaCl2)) and the kinetic response is monitored over a period of 60 seconds.
The kinetic response is divided into two distinct phases: monitoring the kinetic response after the First Injection, termed Compound Addition (CA), and monitoring the kinetic response after the Second Injection of 10 mM CaCl2, termed Target Activation (TA). Agonist activity of compounds is evaluated in the Target Activation (TA) phase and it is based on normalization to TA activation by forskolin at 10 μM or GLP-1 at 3.16 nM (EC100)
A good correlation was observed between EC50, data normalized by forskolin and by GLP-1.

T1 sequence (P43220 24-463): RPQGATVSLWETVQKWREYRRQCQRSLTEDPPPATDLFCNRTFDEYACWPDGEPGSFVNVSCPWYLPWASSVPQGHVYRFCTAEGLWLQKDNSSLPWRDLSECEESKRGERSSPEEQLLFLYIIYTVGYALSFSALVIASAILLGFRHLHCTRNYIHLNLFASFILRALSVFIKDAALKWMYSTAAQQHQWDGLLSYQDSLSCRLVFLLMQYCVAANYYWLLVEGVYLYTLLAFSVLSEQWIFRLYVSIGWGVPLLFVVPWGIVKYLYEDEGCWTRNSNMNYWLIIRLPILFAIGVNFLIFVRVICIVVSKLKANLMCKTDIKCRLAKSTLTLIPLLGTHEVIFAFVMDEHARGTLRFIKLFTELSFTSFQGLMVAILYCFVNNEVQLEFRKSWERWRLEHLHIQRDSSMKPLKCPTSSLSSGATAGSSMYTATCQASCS

EC50 [µM] | SMILES
0.63 | C[C@@H]1NC(=O)[C@H](Cc2ccc(O)cc2)NC(=O)[C@H](CCC(N)=O)NC(=O)[C@H](Cc2c[nH]c3ccccc23)NC(=O)[C@H](Cc2ccccc2)NC(=O)C2(CCCCC2)NC(=O)[C@H]2CCCN2C(=O)[C@H](Cc2ccc(N)cc2)NC(=O)[C@H](CCC(=O)O)NC(=O)[C@H](Cc2c[nH]c3ccccc23)NC1=O [compound 30, cyclo(-Phe-Trp-Gln-Tyr-Ala-Trp-Glu-Phe(4NH2)-^DPro-Chx-)] (cyclo(FWQYAWE[Phe(4-NH2)][dP][Ac6c]))
0.68 | CC(C)C[C@@H]1NC(=O)[C@H](CCC(=O)O)NC(=O)[C@H](Cc2ccccc2)NC(=O)C2(CCCCC2)NC(=O)[C@H]2CCCN2C(=O)[C@H](Cc2ccccc2)NC(=O)[C@H](CCC(=O)O)NC(=O)[C@H](Cc2c[nH]c3ccccc23)NC(=O)[C@H](C)NC(=O)[C@H](Cc2ccc(O)cc2)NC1=O [compound 31, cyclo(-Phe-Glu-Leu-Tyr-Ala-Trp-Glu-Phe-^DPro-Chx-)] (cyclo(FELYAWEF[dP][Ac6c]))
0.92 ± 0.31 | COc1ccc(C[C@@H]2NC(=O)[C@H](Cc3ccccc3)NC(=O)C3(CCCCC3)NC(=O)[C@H]3CCCN3C(=O)[C@H](Cc3ccc(O)cc3)NC(=O)[C@H](CCC(=O)O)NC(=O)[C@H](Cc3c[nH]c4ccccc34)NC(=O)[C@H](C)NC(=O)[C@H](Cc3ccc(O)cc3)NC(=O)[C@H](CCC(N)=O)NC2=O)cc1 [compound 32, cyclo(-Phe-Tyr(Me)-Gln-Tyr-Ala-Trp-Glu-Tyr-^DPro-Chx-)] (cyclo(FY(Me)QYAWEY[dP][Ac6c]))
0.99 ± 0.37 | C[C@@H]1NC(=O)[C@H](Cc2ccc(O)cc2)NC(=O)[C@H](CCC(N)=O)NC(=O)[C@H](Cc2ccncc2)NC(=O)[C@H](Cc2ccccc2)NC(=O)C2(CCCCC2)NC(=O)[C@H]2CCCN2C(=O)[C@H](Cc2ccc(O)cc2)NC(=O)[C@H](CCC(=O)O)NC(=O)[C@H](Cc2c[nH]c3ccccc23)NC1=O [compound 33, cyclo(-Phe-4Pal-Gln-Tyr-Ala-Trp-Glu-Tyr-^DPro-Chx-)] (cyclo(F[4Pal]QYAWEY[dP][Ac6c]))
0.73 | COc1ccc(C[C@@H]2NC(=O)[C@H](CC(C)C)NC(=O)[C@H](CCC(=O)O)NC(=O)[C@H](Cc3ccccc3)NC(=O)C3(CCCCC3)NC(=O)[C@H]3CCCN3C(=O)[C@H](Cc3ccc(OC)cc3)NC(=O)[C@H](CCC(=O)O)NC(=O)[C@H](Cc3c[nH]c4ccccc34)NC(=O)[C@H](C)NC2=O)cc1 [compound 34, cyclo(-Phe-Glu-Leu-Tyr(Me)-Ala-Trp-Glu-Tyr(Me)-^DPro-Chx-)] (cyclo(FELY(Me)AWEY(Me)[dP][Ac6c]))
1.1 ± 0.5 | C[C@@H]1NC(=O)[C@H](Cc2ccc(O)cc2)NC(=O)[C@H](CCC(N)=O)NC(=O)[C@H](Cc2c[nH]c3ccc(O)cc23)NC(=O)[C@H](Cc2ccccc2)NC(=O)C2(CCCCC2)NC(=O)[C@H]2CCCN2C(=O)[C@H](Cc2ccc(O)cc2)NC(=O)[C@H](CCC(=O)O)NC(=O)[C@H](Cc2c[nH]c3ccccc23)NC1=O [compound 35, cyclo(-Phe-Trp(5OH)-Gln-Tyr-Ala-Trp-Glu-Tyr-^DPro-Chx-)] (cyclo(F[Trp(5-OH)]QYAWEY[dP][Ac6c]))
0.85 | CC(C)C[C@@H]1NC(=O)[C@H](CCC(=O)O)NC(=O)[C@H](Cc2ccccc2)NC(=O)C2(CCCCC2)NC(=O)[C@H]2CCCN2C(=O)[C@H](Cc2cncn2Cc2ccccc2)NC(=O)[C@H](CCC(=O)O)NC(=O)[C@H](Cc2c[nH]c3ccccc23)NC(=O)[C@H](C)NC(=O)[C@H](Cc2ccc(O)cc2)NC1=O [compound 36, cyclo(-Phe-Glu-Leu-Tyr-Ala-Trp-Glu-His(Bn)-^DPro-Chx-)] (cyclo(FELYAWE[His(π-Bn)][dP][Ac6c]))
0.88 | CC(C)C[C@@H]1NC(=O)[C@H](CCC(=O)O)NC(=O)[C@H](Cc2ccccc2)NC(=O)C2(CCCCC2)NC(=O)[C@H]2CCCN2C(=O)[C@H](Cc2ccc(O)cc2)NC(=O)[C@H](CCC(=O)O)NC(=O)[C@H](Cc2c[nH]c3ccccc23)NC(=O)[C@H](C)NC(=O)[C@H](Cc2ccc(C#N)cc2)NC1=O [compound 37, cyclo(-Phe-Glu-Leu-Phe(4CN)-Ala-Trp-Glu-Tyr-^DPro-Chx-)] (cyclo(FEL[Phe(4-CN)]AWEY[dP][Ac6c]))
0.93 | CC(C)C[C@@H]1NC(=O)[C@H](CCC(=O)O)NC(=O)[C@H](Cc2ccccc2)NC(=O)C2(CCCCC2)NC(=O)[C@H]2CCCN2C(=O)[C@H](Cc2ccc(O)cc2)NC(=O)[C@H](CCCNC(N)=O)NC(=O)[C@H](Cc2c[nH]c3ccccc23)NC(=O)[C@H](C)NC(=O)[C@H](Cc2ccc(O)cc2)NC1=O [compound 38, cyclo(-Phe-Glu-Leu-Tyr-Ala-Trp-Cit-Tyr-^DPro-Chx-)] (cyclo(FELYAW[Cit]Y[dP][Ac6c]))
1 ± 0.1 | CC(C)C[C@@H]1NC(=O)[C@H](CCC(=O)O)NC(=O)[C@H](Cc2ccccc2)NC(=O)C2(CCCCC2)NC(=O)[C@H]2CCCN2C(=O)[C@H](Cc2c[nH]cn2)NC(=O)[C@H](CCC(=O)O)NC(=O)[C@H](Cc2c[nH]c3ccccc23)NC(=O)[C@H](C)NC(=O)[C@H](Cc2ccc(O)cc2)NC1=O [compound 39, cyclo(-Phe-Glu-Leu-Tyr-Ala-Trp-G lu-H is-^DP ro-Chx-)] (cyclo(FELYAWEH[dP][Ac6c]))
1.2 ± 0.6 | CC(C)C[C@@H]1NC(=O)[C@H](CCC(N)=O)NC(=O)[C@H](Cc2ccccc2)NC(=O)C2(CCCCC2)NC(=O)[C@H]2CCCN2C(=O)[C@H](Cc2ccc(O)cc2)NC(=O)[C@H](CCC(=O)O)NC(=O)[C@H](Cc2c[nH]c3ccccc23)NC(=O)[C@H](C)NC(=O)[C@H](Cc2ccc(O)cc2)NC1=O [compound 40, cyclo(-Phe-Gln-Leu-Tyr-Ala-Trp-Glu-Tyr-^DPro-Chx-)] (cyclo(FQLYAWEY[dP][Ac6c]))
0.83 ± 0.6 | CC(C)C[C@@H]1NC(=O)[C@H](CCC(=O)O)NC(=O)[C@H](Cc2ccccc2)NC(=O)C2(CCCCC2)NC(=O)[C@H]2CCCN2C(=O)[C@H](Cc2cccnc2)NC(=O)[C@H](CCC(=O)O)NC(=O)[C@H](Cc2c[nH]c3ccccc23)NC(=O)[C@H](C)NC(=O)[C@H](Cc2ccc(O)cc2)NC1=O [compound 41, cyclo(-Phe-Glu-Leu-Tyr-Ala-Trp-Glu-3Pal-^DPro-Chx-)] (cyclo(FELYAWE[3Pal][dP][Ac6c]))
2.2 ± 1 | CC(C)C[C@@H]1NC(=O)[C@H](CCC(=O)O)NC(=O)[C@H](Cc2ccccc2)NC(=O)C2(CCCCC2)NC(=O)[C@H]2CCCN2C(=O)[C@H](CCCNC(=N)N)NC(=O)[C@H](CCC(=O)O)NC(=O)[C@H](Cc2c[nH]c3ccccc23)NC(=O)[C@H](C)NC(=O)[C@H](Cc2ccc(O)cc2)NC1=O [compound 42, cyclo(-Phe-Glu-Leu-Tyr-Ala-Trp-Glu-Arg-^DPro-Chx-)] (cyclo(FELYAWER[dP][Ac6c]))
2.9 ± 0.7 | CC(C)C[C@@H]1NC(=O)[C@H](CC(C)C)NC(=O)[C@H](CCC(=O)O)NC(=O)[C@H](Cc2ccccc2)NC(=O)C2(CCCC2)NC(=O)[C@H]2CCCN2C(=O)[C@H](Cc2ccccc2)NC(=O)[C@H](CCC(=O)O)NC(=O)[C@H](Cc2c[nH]c3ccccc23)NC(=O)[C@H](C)NC1=O [compound 44, cyclo(-Phe-Glu-Leu-Leu-Ala-Trp-Glu-Phe-^DPro-Cyp-)] (cyclo(FELLAWEF[dP][Ac5c]))
1.8 | CC(C)C[C@@H]1NC(=O)[C@H](CC(C)C)NC(=O)[C@H](CCC(=O)O)NC(=O)[C@H](Cc2ccccc2)NC(=O)C(C)(C)NC(=O)[C@H]2CCCN2C(=O)[C@H](Cc2ccccc2)NC(=O)[C@H](CCC(=O)O)NC(=O)[C@H](Cc2c[nH]c3ccccc23)NC(=O)[C@H](C)NC1=O [compound 45, cyclo(-Phe-Glu-Leu-Leu-Ala-Trp-Glu-Phe-^DPro-Aib-)] (cyclo(FELLAWEF[dP][Aib]))
